The results in this text go back to patent US5084464A, “Conjugated γ-hydroxybutenolide compounds and antiulcer agents containing the same as an effective ingredient” (Kuraray Company Ltd., priority 1989, dated 1992).

In series [1] the test system is HCl-ethanol-induced ulcers generated at the mucosa of the stomach. In words: Antiulcer Activity (HCl-Ethanol Ulcer). Type of series: in vivo. The settings on record: oral, one hour before HCl-ethanol, rats. The procedure:
Antiulcer Activity (HCl-Ethanol Ulcer)
1.5 ml of a 60% aqueous ethanol solution containing 150 mM hydrochloric acid was orally administered to rats. One hour thereafter the rats were sacrificed and the length (mm) of HCl-ethanol-induced ulcers generated at the mucosa of the stomach were measured. Sum of the length of ulcer per animal is defined as ulcer coefficient. Specimens each was orally administered one hour before the HCl-ethanol administration. Inhibition rate was calculated as the ratio of the difference of ulcer coefficients of the control group and specimen-administered group to the ulcer coefficient of the control group.

Series [2] can be described thus: Acute Toxicity (oral administration). The settings on record: mouse, in vivo. The procedure:
Acute toxicity tests through oral administration were carried out using male ICR-strain mice (5 weeks old).

The mark [3] stands for this setting: Rattus norvegicus, 1 h, read-out: Inhibition Rate.

Broadly, the LD50 is the dose at which mortality reaches 50%. High values mean a less toxic substance, low ones a more toxic substance.

Regarding `CN(C)c1ccc(/C=C/C2=CC(=O)OC2O)cc1` (stereo not shown) [(2)], the inhibition in vivo at 2.5 mg/kg in series [1] (setting [3]) is 37.5%.
Turning to `O=C1C=C(/C=C/c2cccc(C(=O)c3ccccc3)c2)C(O)O1` (stereo not shown) [(3)], the inhibition in vivo at 5 mg/kg in series [1] (setting [3]) turned out to be 69.7%.
On to `O=C1C=C(/C=C/c2cccc(Cc3cccnc3)c2)C(O)O1` (stereo not shown) [(4)], for which, in series [1] (setting [3]), the inhibition in vivo at 5 mg/kg worked out at 42%.
As for `O=C1C=C(/C=C/c2cccc3ccccc23)C(O)O1` (stereo not shown) [(5)], in series [1] (setting [3]), the inhibition in vivo at 2.5 mg/kg worked out at 94%.
On to `COc1ccc2cc(/C=C/C3=CC(=O)OC3O)ccc2c1` (stereo not shown) [(6)], for which the inhibition in vivo at 5 mg/kg in series [1] (setting [3]) came to 61.3%.
As to `O=C1C=C(/C=C/c2ccco2)C(O)O1` (stereo not shown) [(7)], in series [1] (setting [3]), the inhibition in vivo at 2.5 mg/kg worked out at 96%.
Consider `O=C1C=C(/C=C/c2cccs2)C(O)O1` (stereo not shown) [(8)], for which the inhibition in vivo at 2.5 mg/kg in series [1] (setting [3]) turned out to be 95.5%.
Turning to `O=C1C=C(/C=C/C=C/c2ccccc2)C(O)O1` (stereo not shown) [(9)], the inhibition in vivo at 5 mg/kg in series [1] (setting [3]) came to 98.6%.
Consider `O=C1C=C(/C=C/C=C/C=C/c2ccccc2)C(O)O1` (stereo not shown) [(10)], for which the inhibition in vivo at 5 mg/kg in series [1] (setting [3]) was 61.8%.
For the molecule `CC(C)=C/C=C/C1=CC(=O)OC1O` (stereo not shown) [Compound (1), 5-hydroxy-4-[4-methyl-1,3-pentadienyl]-2(5H)-furanone], the inhibition in vivo at 5 mg/kg in series [1] (setting [3]) amounted to 90.6%. Moreover, the LD50 in series [2] is at least 2000 mg/kg.
On to `CC(=O)c1ccc2c(c1)C(=O)C1(CC1)O2` [Spizofurone, reference compound], for which the “Inhibition Rate” value in series [1] (100 mg/kg) is on record as 86.6%.
As for `CC(=O)CCC=C(C)CCC=C(C)CCC=C(C)CCC=C(C)C` [Teprenone, reference compound], in series [1] (Rattus norvegicus, 1 h, 25 mg/kg, read-out: Inhibition Rate), the inhibition in vivo at 25 mg/kg turned out to be 48.9%.
